Where only a bound is given, the exact number is not on record here.

The source of these data is patent EP4790048A1, “S1PR4 REGULATOR COMPOUND FOR AUTOIMMUNE DISEASE TREATMENT AND APPLICATION THEREOF” (Shengyuan Zetong (Shanghai) Pharmaceutical Co., Ltd, priority 2023, dated 2025).

One assay deals with T1, hS1P1 (Homo sapiens, UniProt P21453).
T1 construct: expressed in transfected cells; host or cells: CHO
T1 sequence (P21453 whole entry): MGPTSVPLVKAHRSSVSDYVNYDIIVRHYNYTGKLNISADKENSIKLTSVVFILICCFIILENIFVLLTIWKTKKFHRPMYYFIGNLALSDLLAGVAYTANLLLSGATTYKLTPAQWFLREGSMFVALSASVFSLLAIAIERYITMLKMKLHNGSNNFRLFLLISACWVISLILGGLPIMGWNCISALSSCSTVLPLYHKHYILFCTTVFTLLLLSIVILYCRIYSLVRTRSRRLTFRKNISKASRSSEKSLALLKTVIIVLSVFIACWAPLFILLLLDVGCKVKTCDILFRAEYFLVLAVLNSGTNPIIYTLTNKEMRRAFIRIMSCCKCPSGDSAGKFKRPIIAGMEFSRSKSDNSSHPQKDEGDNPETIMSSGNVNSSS
Description: Tango β-arrestin recruitment luciferase assay, Tango-hS1P1-CHO. The following applies: β-arrestin recruitment; 20 h drug treatment; top 45 µM, 9 serial 5-fold dilutions; positive control 1 µM BAF-312; read-out: Tango-hS1P1-CHO EC50. The format is cell-based. The text has this:
(§1) The Tango assay detects ligand-dependent GPCR activity through the interaction between β-arrestin and GPCRs. […] The NTEV fragment and the tetracycline transactivator (tTA), an artificial transcription factor, are fused at the C-terminus of the GPCR, while the CTEV fragment is fused to human β-arrestin 2. To enhance the stability of the interaction between GPCR and β-arrestin, a short sequence from the C-terminus of the human arginine vasopressin receptor 2 (V2 tail) is inserted between the GPCR and NTEV. The V2 tail contains multiple GRK phosphorylation sites, which strengthen β-arrestin binding upon phosphorylation. The CTEV fragment carries the stabile point mutation S219P and is truncated at residue 221 to remove the autoinhibitory C-terminal tail. Meanwhile, β-arrestin 2 is truncated to lack the entire C-terminal tail (residues 383-410 deleted). This truncation confers robust stimulus-dependent receptor desensitization, thereby improving detection sensitivity compared with wild-type β-arrestin 2. The UAS reporter construct consists of upstream activating sequence (UAS) elements, a minimal CMV promoter, and a tTA-dependent luciferase reporter gene. Therefore, constructing Tango cells requires the co-transfection of the above three plasmids into host cells. Upon GPCR activation and β-arrestin recruitment, the TEV enzyme at the β-arrestin terminus cleaves tTA from the GPCR C-terminus. The released tTA initiates tTA-dependent luciferase transcription, and compound activity is ultimately determined by measuring luminescence intensity.
(§2) • 1) Tango cell line from was digested from the culture dish respectively. After cell counting, the cells were plated at a density of 10,000 cells per well with […] into a white opaque 96-well plate (add 60 µL D'Hanks to the surrounding wells), and incubated overnight (20 h) in a 5% CO2 incubator at 37°C. The cell density will reach approximately 90% the next day. • 2) After 20 h, 30 µL of serially diluted compound solution was added to each well. The control group was supplemented with 30 µL F12K complete medium. Each group had three replicate wells. • 3) Samples were collected after 20 h of drug treatment.
(§3) (All compounds were tested at a final concentration of 45 µM, with 9 serial dilutions at 5-fold intervals. 1 µM BAF-312 was used as the positive control for S1PR1, and 25 µM BAF-312 was used as the positive control for S1PR4.
For orientation: Arrestin recruitment assays detect the binding of arrestin to an activated receptor.
By EC50 is commonly meant the concentration needed to bring the measured effect to its halfway point. As for `CCc1cc(/C(C)=N/OCc2ccc(-c3ccns3)cc2)ccc1CN1CC[C@H](C(=O)O)C1` [Compound 75], the EC50 was over 10000 nM.
The same measure, in the same setting: then `CCc1cc(/C(C)=N/OCc2c(F)cc(-c3ccc(F)nc3)cc2F)ccc1CN1CC[C@H](C(=O)O)C1` [Compound 86, (S, E)-1-(2-ethyl-4-(1-(((2,6-difluoro-4-(6-fluoropyridin-3-yl)benzyl)oxy)imino)ethyl)benzyl)pyrrolidine-3-carboxylic acid], with over 10000 nM; and `CCc1cc(/C(C)=N/OCc2ccc(-c3cncnc3)cc2)ccc1CN1CC[C@H](C(=O)O)C1` [Compound 70, (S, E)-1-(2-ethyl-4-(1-(((4-(pyrimidin-5-yl)benzyl)oxy)imino)ethyl)benzyl)pyrrolidine-3-carboxylic acid], with over 10000 nM; and `CCc1cc(/C(C)=N/OCc2ccc(-c3cnc(F)nc3)cc2F)ccc1CN1CC[C@H](C(=O)O)C1` [Compound 79, (S, E)-1-(2-ethyl-4-(1-(((2-fluoro-4-(2-fluoropyrimidin-5-yl)benzyl)oxy)imino)ethyl)benzyl)pyrrolidine-3-carboxylic acid], with over 10000 nM.

The target in the next assay is T2, hS1P4 (Homo sapiens, UniProt O95977).
T2 construct: expressed in transfected cells; host or cells: CHO
T2 sequence (O95977 1-384): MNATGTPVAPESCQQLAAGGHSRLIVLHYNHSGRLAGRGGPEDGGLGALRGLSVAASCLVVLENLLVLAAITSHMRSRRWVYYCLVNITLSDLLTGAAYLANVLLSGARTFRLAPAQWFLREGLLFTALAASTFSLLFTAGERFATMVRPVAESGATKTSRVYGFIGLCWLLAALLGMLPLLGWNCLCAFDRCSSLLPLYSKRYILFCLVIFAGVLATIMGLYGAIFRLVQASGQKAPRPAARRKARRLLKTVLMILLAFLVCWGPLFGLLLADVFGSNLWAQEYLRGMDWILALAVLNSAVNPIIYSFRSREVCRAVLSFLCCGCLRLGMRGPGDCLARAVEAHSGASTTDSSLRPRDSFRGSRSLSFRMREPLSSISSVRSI
The assay can be described thus: Tango β-arrestin recruitment luciferase assay, Tango-hS1P4-CHO. It counts as cell-based. Particulars: β-arrestin recruitment; 20 h drug treatment; top 45 µM, 9 serial 5-fold dilutions; positive control 25 µM BAF-312; read-out: Tango-hS1P4-CHO EC50.
Source text: as §1, §2, §3
In the case of `CCc1cc(/C(C)=N/OCc2ccc(-c3ncc(F)cn3)c(C)c2)ccc1CN1CC[C@H](C(=O)O)C1` [Compound 77, (S, E)-1-(2-ethyl-4-(1-(((4-(5-fluoropyrimidin-2-yl)-3-methylbenzyl)oxy)imino)ethyl)benzyl)pyrrolidine-3-carboxylic acid], the EC50 was determined as 5.93 ± 4.12 nM.
Same read-out and setting: with `CCc1cc(/C(C)=N/OCc2ccc(-c3ccsc3)c(F)c2)ccc1CN1CC[C@H](C(=O)O)C1` [Compound 85, (S, E)-1-(2-ethyl-4-(1-(((3-fluoro-4-(thiophen-3-yl)benzyl)oxy)imino)ethyl)benzyl)pyrrolidine-3-carboxylic acid] the figure was 8.52 ± 0.21 nM; with `CCc1cc(/C(C)=N/OCc2ccc(-c3ccc(F)cc3F)c(C)c2)ccc1CN1CC[C@H](C(=O)O)C1` [Compound 47, (S, E)-1-(2-ethyl-4-(1-(((2',4'-difluoro-2-methyl-[1,1'-biphenyl]-4-yl)methoxy)imino)ethyl)benzyl)pyrrolidine-3-carboxylic acid], 4.67 nM.
On the same count and under the same terms, then `C/C(=N\OCc1ccc(C2CCCCC2)c(C(F)(F)F)c1)c1ccc(CN2CC(C(=O)O)C2)c(Br)c1` [Compound 12, (E)-1-(2-bromo-4-(1-((4-cyclohexyl-3-(trifluoromethyl)benzyl)oxy)imino)ethyl)azetidine-3-carboxylic acid], with 2250 nM.
Still for that read-out and setting: then `CCc1cc(/C(C)=N/OCc2ccc(-c3ccncn3)c(C)c2)ccc1CN1CC[C@H](C(=O)O)C1` [Compound 76, (S, E)-1-(2-ethyl-4-(1-(((3-methyl-4-(pyrimidin-4-yl)benzyl)oxy)imino)ethyl)benzyl)pyrrolidine-3-carboxylic acid], with 4.39 ± 0.91 nM.
`CCc1cc(/C(C)=N/OCc2ccc(-c3cccs3)c(C)c2)ccc1CN1CC[C@H](C(=O)O)C1` [Compound 72, (S, E)-1-(2-ethyl-4-(1-(((3-methyl-4-(thiophen-2-yl)benzyl)oxy)imino)ethyl)benzyl)pyrrolidine-3-carboxylic acid]: the EC50 was 1.51 ± 0.64 nM.
`CCc1cc(/C(C)=N/OCc2ccc(-c3ccsc3)c(C)c2)ccc1CN1CC[C@H](C(=O)O)C1` [Compound 41, (S, E)-1-(2-ethyl-4-(1-(((3-methyl-4-(thiophen-3-yl)benzyl)oxy)imino)ethyl)benzyl)pyrrolidine-3-carboxylic acid]: the EC50 was found to be 2.91 ± 0.01 nM.
Regarding `COc1cc(/C(C)=N/OCc2ccc(C3CCCCC3)c(C(F)(F)F)c2)ccc1CN1CC(C(=O)O)C1` [Compound 27], the EC50 amounted to 1700 nM.
Still for that read-out and setting: then `CCc1cc(/C(C)=N/OCc2ccc(-c3ccsc3)cc2)ccc1CN1CC[C@H](C(=O)O)C1` [Compound 56], with 5.05 ± 1.84 nM; and `CCc1cc(/C(C)=N/OCc2ccc(C3=CCCCC3)c(C)c2)ccc1CN1CC[C@H](C(=O)O)C1` [Compound 61], with 3.33 ± 2.5 nM; and `CCc1cc(/C(C)=N/OCc2ccc(-c3cnn(C)c3)cc2F)ccc1CN1CC[C@H](C(=O)O)C1` [Compound 58], with over 10000 nM.
Take `CCc1cc(/C(C)=N/OCc2ccc(-c3cnc(O)cn3)c(C)c2)ccc1CN1CC[C@H](C(=O)O)C1` [Compound 5, (S, E)-1-(2-ethyl-4-(1-(((3-methyl-4-(5-hydroxypyrazin-2-yl)-benzyl)oxy)imino)ethyl)benzyl)pyrrolidine-3-carboxylic acid]: the 50% effective concentration (EC50) came out at 4.22 ± 1.19 nM.
Still for that read-out and setting: then `CCc1cc(/C(C)=N/OCc2ccc(-c3ccc(F)nc3)c(F)c2)ccc1CN1CC[C@H](C(=O)O)C1` [Compound 69, (S, E)-1-(2-ethyl-4-(1-(((3-fluoro-4-(6-fluoropyridin-3-yl)benzyl)oxy)imino)ethyl)benzyl)pyrrolidine-3-carboxylic acid], with 8.28 ± 0.38 nM; and `C/C(=N\OCc1ccc(C2CCCCC2)c(C(F)(F)F)c1)c1ccc(CNCCCC(=O)O)cc1` [Compound 8, (E)-4-((4-((1-((4-cyclohexyl-3-(trifluoromethyl)benzyl)oxy)imino)ethyl)benzyl)amino)butanoic acid], with 2400 nM; and `CCc1cc(/C(C)=N/OCc2ccc(-c3cnc(F)cn3)c(C)c2)ccc1CN1CC(C(=O)O)C1` [Compound 91, (E)-1-(2-ethyl-4-(1-(((3-methyl-4-(5-fluoropyrazin-2-yl)-benzyl)oxy)imino)ethyl)benzyl)azetidine-3-carboxylic acid], with over 10000 nM.
Still for that read-out and setting: then `CCc1cc(/C(C)=N/OCc2ccc(-c3ccccc3F)c(F)c2)ccc1CN1CC[C@H](C(=O)O)C1` [Compound 64], with 7.77 ± 1.02 nM; and `CCc1cc(/C(C)=N/OCc2ccc(C3=CCCC3)c(C)c2)ccc1CN1CC[C@H](C(=O)O)C1` [Compound 63], with 5.86 ± 0.27 nM.
With `CCc1cc(/C(C)=N/OCc2ccc(C3CCCC3)c(C)c2)ccc1CN1CC[C@H](C(=O)O)C1` [Compound 62, (S, E)-1-(2-ethyl-4-(1-(((4-cyclopentyl-3-methylbenzyl)oxy)imino)ethyl)benzyl)pyrrolidine-3-carboxylic acid], the EC50 worked out at 3.31 ± 0.24 nM.
The same measure, in the same setting: with `CCc1cc(/C(C)=N/OCc2ccc(-c3cnc(F)cn3)c(C)c2)ccc1CN1CCC(C(=O)O)CC1` [Compound 90, (E)-1-(2-ethyl-4-(1-(((3-methyl-4-(5-fluoropyrazin-2-yl)-benzyl)oxy)imino)ethyl)benzyl)piperidine-4-carboxylic acid] the figure was over 10000 nM.
Turning to `CCc1cc(/C(C)=N/OCc2ccc(-c3cncnc3)c(C)c2)ccc1CN1CC(C(=O)O)C1` [Compound 81, (E)-1-(2-ethyl-4-(1-(((3-methyl-4-(pyrimidin-5-yl)benzyl)oxy)imino)ethyl)benzyl)azetidine-3-carboxylic acid], the EC50 amounted to 103 ± 9.1 nM.
Still for that read-out and setting: with `CCc1cc(/C(C)=N/OCc2cccc(C(F)(F)F)c2)ccc1CN1CC(C(=O)O)C1` [Compound 13] the figure was 3240 nM; with `CCc1cc(/C(C)=N/OCc2ccc(-c3ccc(F)nc3)c(C)c2)ccc1CN1CC[C@H](C(=O)O)C1` [Compound 53, (S, E)-1-(2-ethyl-4-(1-(((4-(6-fluoropyridin-3-yl)-3-methylbenzyl)oxy)imino)ethyl)benzyl)pyrrolidine-3-carboxylic acid], 7.02 ± 0.59 nM; with `CCc1cc(/C(C)=N/OCc2ccc(OC(C)C)c(C#N)c2)ccc1CN1CC(C(=O)O)C1` [Compound 16, (E)-1-(4-(1-(((3-cyano-4-isopropoxybenzyl)oxy)imino)ethyl)-2-ethylbenzyl)azetidine-3-carboxylic acid], 3320 nM.
On the same count and under the same terms, with `CCc1cc(/C(C)=N/OCc2ccc(C3CCCCC3)c(C)c2)ccc1CN1CC[C@H](C(=O)O)C1` [Compound 60, (S, E)-1-(2-ethyl-4-(1-(((4-cyclohexyl-3-methylbenzyl)oxy)imino)ethyl)benzyl)pyrrolidine-3-carboxylic acid] the figure was 71.7 nM.
